# Read-outs that look alike come from different tables or passages of the source.
# Experiments:
# [1] = system: Staphylococcus epidermidis ATCC 35984; experiment: MIC, broth microdilution, MDR/BPSE reference strain; type: cell-based; conditions: Staphylococcus epidermidis, ATCC35984, read-out: MIC MDR/BPSE, Staphylococcus epidermidis ATCC 35984
# Summary of the method: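 Compounds tested as free bases dissolved in DMSO (1 mg/mL stock); determinations done twice; linezolid as positive control.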
# [2] = system: clinical MDR Staphylococcus epidermidis isolates; experiment: MIC, broth microdilution, 81 clinical MDR strains; type: cell-based; conditions: Staphylococcus epidermidis
# Summary of the method: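 MICs were determined by twofold broth microdilution in cation-adjusted Mueller-Hinton II broth per EUCAST, over 50–0.1 µg/mL, in duplicate. Compounds were tested as free bases dissolved in DMSO; MIC50 and MIC90 were derived across the 81 clinical MDR S. epidermidis strains.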
smiles,measurement,setting,value
O=C(Nc1cccc(Cl)c1)NC1CCN(CCC(Oc2ccc(C(F)(F)F)cc2)c2cccs2)CC1 (stereo not drawn) [Compound 25],MIC,[1],≤ 0.8 µg/mL
same,MIC,"[2]; 81 clinical strains (Table S5), read-out: Average of MIC",1.84 µg/mL
same,MIC,"[2]; clinical strain 1 (Table S2), read-out: MIC",0.8 µg/mL
same,MIC,"[2]; clinical strain 1 (Table S5), read-out: MIC",1.6 µg/mL
same,MIC,"[2]; clinical strain 2 (Table S2), read-out: MIC",0.8 µg/mL
same,MIC,"[2]; clinical strain 2 (Table S5), read-out: MIC",1.6 µg/mL
same,MIC,"[2]; clinical strain 3 (Table S2), read-out: MIC",0.8 µg/mL
same,MIC,"[2]; clinical strain 3 (Table S5), read-out: MIC",0.8 µg/mL
same,MIC,"[2]; clinical strain 4 (Table S2), read-out: MIC",3.12 µg/mL
same,MIC,"[2]; clinical strain 4 (Table S5), read-out: MIC",1.6 µg/mL
same,MIC,"[2]; clinical strain 5 (Table S2), read-out: MIC",0.8 µg/mL
same,MIC,"[2]; clinical strain 6 (Table S2), read-out: MIC",1.6 µg/mL
same,MIC,"[2]; clinical strain 6 (Table S5), read-out: MIC",1.6 µg/mL
same,MIC,"[2]; clinical strain 7 (Table S2), read-out: MIC",1.6 µg/mL
same,MIC,"[2]; clinical strain 7 (Table S5), read-out: MIC",1.6 µg/mL
same,MIC,"[2]; clinical strain 8 (Table S2), read-out: MIC",1.6 µg/mL
same,MIC,"[2]; clinical strain 8 (Table S5), read-out: MIC",0.8 µg/mL
same,MIC,"[2]; clinical strain 9 (Table S2), read-out: MIC",0.8 µg/mL
same,MIC,"[2]; clinical strain 9 (Table S5), read-out: MIC",3.12 µg/mL
same,MIC,"[2]; clinical strain 10 (Table S2), read-out: MIC",3.12 µg/mL
same,MIC,"[2]; clinical strain 10 (Table S5), read-out: MIC",3.12 µg/mL
same,MIC,"[2]; clinical strain 11 (Table S2), read-out: MIC",1.6 µg/mL
same,MIC,"[2]; clinical strain 11 (Table S5), read-out: MIC",1.6 µg/mL
same,MIC,"[2]; clinical strain 12 (Table S2), read-out: MIC",3.12 µg/mL
same,MIC,"[2]; clinical strain 12 (Table S5), read-out: MIC",1.6 µg/mL
same,MIC,"[2]; clinical strain 13 (Table S2), read-out: MIC",1.6 µg/mL
same,MIC,"[2]; clinical strain 13 (Table S5), read-out: MIC",1.6 µg/mL
same,MIC,"[2]; clinical strain 14 (Table S2), read-out: MIC",3.12 µg/mL
same,MIC,"[2]; clinical strain 14 (Table S5), read-out: MIC",1.6 µg/mL
same,MIC,"[2]; clinical strain 15 (Table S2), read-out: MIC",1.6 µg/mL
same,MIC,"[2]; clinical strain 15 (Table S5), read-out: MIC",3.12 µg/mL
same,MIC,"[2]; clinical strain 16 (Table S2), read-out: MIC",3.12 µg/mL
same,MIC,"[2]; clinical strain 16 (Table S5), read-out: MIC",1.6 µg/mL
same,MIC,"[2]; clinical strain 17 (Table S2), read-out: MIC",1.6 µg/mL
same,MIC,"[2]; clinical strain 17 (Table S5), read-out: MIC",0.1 µg/mL
same,MIC,"[2]; clinical strain 18 (Table S2), read-out: MIC",1.6 µg/mL
same,MIC,"[2]; clinical strain 18 (Table S5), read-out: MIC",3.12 µg/mL
same,MIC,"[2]; clinical strain 19 (Table S2), read-out: MIC",1.6 µg/mL
same,MIC,"[2]; clinical strain 19 (Table S5), read-out: MIC",0.8 µg/mL
same,MIC,"[2]; clinical strain 20 (Table S2), read-out: MIC",0.1 µg/mL
same,MIC,"[2]; clinical strain 20 (Table S5), read-out: MIC",1.6 µg/mL
same,MIC,"[2]; clinical strain 21 (Table S2), read-out: MIC",1.6 µg/mL
same,MIC,"[2]; clinical strain 21 (Table S5), read-out: MIC",1.6 µg/mL
same,MIC,"[2]; clinical strain 22 (Table S2), read-out: MIC",1.6 µg/mL
same,MIC,"[2]; clinical strain 22 (Table S5), read-out: MIC",0.8 µg/mL
same,MIC,"[2]; clinical strain 23 (Table S2), read-out: MIC",1.6 µg/mL
same,MIC,"[2]; clinical strain 23 (Table S5), read-out: MIC",1.6 µg/mL
same,MIC,"[2]; clinical strain 24 (Table S2), read-out: MIC",0.8 µg/mL
same,MIC,"[2]; clinical strain 24 (Table S5), read-out: MIC",1.6 µg/mL
same,MIC,"[2]; clinical strain 25 (Table S2), read-out: MIC",3.12 µg/mL
same,MIC,"[2]; clinical strain 25 (Table S5), read-out: MIC",0.8 µg/mL
same,MIC,"[2]; clinical strain 26 (Table S2), read-out: MIC",1.6 µg/mL
same,MIC,"[2]; clinical strain 26 (Table S5), read-out: MIC",3.12 µg/mL
same,MIC,"[2]; clinical strain 27 (Table S2), read-out: MIC",0.4 µg/mL
same,MIC,"[2]; clinical strain 27 (Table S5), read-out: MIC",3.12 µg/mL
same,MIC,"[2]; clinical strain 28 (Table S2), read-out: MIC",0.8 µg/mL
same,MIC,"[2]; clinical strain 28 (Table S5), read-out: MIC",0.8 µg/mL
same,MIC,"[2]; clinical strain 29 (Table S2), read-out: MIC",1.6 µg/mL
same,MIC,"[2]; clinical strain 29 (Table S5), read-out: MIC",0.4 µg/mL
same,MIC,"[2]; clinical strain 30 (Table S2), read-out: MIC",3.12 µg/mL
same,MIC,"[2]; clinical strain 30 (Table S5), read-out: MIC",0.8 µg/mL
same,MIC,"[2]; clinical strain 31 (Table S2), read-out: MIC",0.8 µg/mL
same,MIC,"[2]; clinical strain 31 (Table S5), read-out: MIC",1.6 µg/mL
same,MIC,"[2]; clinical strain 32 (Table S2), read-out: MIC",1.6 µg/mL
same,MIC,"[2]; clinical strain 32 (Table S5), read-out: MIC",1.6 µg/mL
same,MIC,"[2]; clinical strain 33 (Table S2), read-out: MIC",3.12 µg/mL
same,MIC,"[2]; clinical strain 33 (Table S5), read-out: MIC",1.6 µg/mL
same,MIC,"[2]; clinical strain 34 (Table S2), read-out: MIC",1.6 µg/mL
same,MIC,"[2]; clinical strain 34 (Table S5), read-out: MIC",1.6 µg/mL
same,MIC,"[2]; clinical strain 35 (Table S2), read-out: MIC",1.6 µg/mL
same,MIC,"[2]; clinical strain 35 (Table S5), read-out: MIC",1.6 µg/mL
same,MIC,"[2]; clinical strain 36 (Table S2), read-out: MIC",0.8 µg/mL
same,MIC,"[2]; clinical strain 36 (Table S5), read-out: MIC",1.6 µg/mL
same,MIC,"[2]; clinical strain 37 (Table S2), read-out: MIC",1.6 µg/mL
same,MIC,"[2]; clinical strain 37 (Table S5), read-out: MIC",1.6 µg/mL
same,MIC,"[2]; clinical strain 38 (Table S2), read-out: MIC",1.6 µg/mL
same,MIC,"[2]; clinical strain 38 (Table S5), read-out: MIC",1.6 µg/mL
same,MIC,"[2]; clinical strain 39 (Table S2), read-out: MIC",1.6 µg/mL
same,MIC,"[2]; clinical strain 39 (Table S5), read-out: MIC",0.8 µg/mL
same,MIC,"[2]; clinical strain 40 (Table S2), read-out: MIC",1.6 µg/mL
same,MIC,"[2]; clinical strain 40 (Table S5), read-out: MIC",0.8 µg/mL
same,MIC,"[2]; clinical strain 41 (Table S2), read-out: MIC",0.8 µg/mL
same,MIC,"[2]; clinical strain 41 (Table S5), read-out: MIC",1.6 µg/mL
same,MIC,"[2]; clinical strain 42 (Table S2), read-out: MIC",0.8 µg/mL

# — article PMC10945555, “Improving Activity of New Arylurea Agents against Multidrug-Resistant and Biofilm-Producing Staphylococcus epidermidis” (ACS Medicinal Chemistry Letters, 2024)
